Among the test systems are SW-620 colon; A549 NSCLC; SNB-75 CNS; M14 melanoma; CCRF-CEM leukemia; UACC-257 melanoma; SN12C renal; PC-3 prostate.
Holding throughout (experiment): NCI tumour cell line growth inhibition, 48 h

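Each compound was tested at five concentrations against cells in 96-well plates for 48 hours. Abbreviation: GI50, concentration required for 50% inhibition of growth. TGI: concentration producing complete growth inhibition.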

For the compound `CC(=O)OCCC/C(=C/c1cc2ccccc2c2ccccc12)[N+](=O)[O-]`, the GI50 with SW-620 colon was 1.49 µM; with A549 NSCLC, 1.84 µM; in the assay on SNB-75 CNS it was 0.606 µM; with M14 melanoma, 1.56 µM; in the assay with CCRF-CEM leukemia, 2.52 µM; in the assay with UACC-257 melanoma, 1.43 µM. Also, the GI50 in the assay with SN12C renal is 1.75 µM; with PC-3 prostate, 1.89 µM. Further, the TGI in the assay with SW-620 colon was 2.81 µM; with A549 NSCLC it was 3.74 µM; in the assay with SNB-75 CNS, 2.17 µM; in the assay on M14 melanoma, 2.9 µM; in the assay on CCRF-CEM leukemia, more than 25.3 µM; in the assay on UACC-257 melanoma, 2.76 µM. Further, the TGI with SN12C renal was found to be 3.75 µM; in the assay with PC-3 prostate, 3.94 µM.

`Fc1cccc(-c2nc(-c3c[nH]c4ncccc34)cs2)c1`: the GI50 with SW-620 colon is more than 100 µM; in the assay with A549 NSCLC it was 17.7 µM; in the assay on SNB-75 CNS, 8.34 µM; in the assay on M14 melanoma, 5.61 µM; with CCRF-CEM leukemia it was more than 100 µM; in the assay with UACC-257 melanoma it was more than 100 µM. Besides, the GI50 with SN12C renal and with PC-3 prostate was more than 100 µM in each case. Also, the TGI in the assay with SW-620 colon was more than 100 µM; with A549 NSCLC, more than 100 µM; with SNB-75 CNS, 42.8 µM; in the assay with M14 melanoma, more than 100 µM; in the assay on CCRF-CEM leukemia it was more than 100 µM; in the assay on UACC-257 melanoma, more than 100 µM. For the same compound, the TGI in the assay with SN12C renal and in the assay on PC-3 prostate was more than 100 µM each time.

Consider `NC1=C(/C(N)=N/O)C(c2ccccc2)c2ccc3ccccc3c2O1` (stereo not drawn), for which the GI50 is 0.243 µM in the assay on SW-620 colon; 0.617 µM in the assay with A549 NSCLC; 0.108 µM in the assay on SNB-75 CNS; 0.208 µM with M14 melanoma; 0.388 µM in the assay with CCRF-CEM leukemia; 25.1 µM in the assay with UACC-257 melanoma. The GI50 was 0.603 µM with SN12C renal and 0.291 µM with PC-3 prostate. Also, the TGI with SW-620 colon was more than 100 µM; in the assay with A549 NSCLC, more than 100 µM; in the assay with M14 melanoma it was 21.1 µM; with CCRF-CEM leukemia it was more than 62.8 µM; in the assay with UACC-257 melanoma it was more than 100 µM; in the assay on SN12C renal, 31 µM. Further, the TGI in the assay on PC-3 prostate is more than 100 µM.

As for `CN1CCN(c2ccc(NC(=O)c3cncnc3Nc3ccc4c(ccn4Cc4cccc(F)c4)c3)cc2)CC1`, the GI50 with SW-620 colon is 0.828 µM; with A549 NSCLC, 2.15 µM; in the assay on SNB-75 CNS, 4.27 µM; in the assay with M14 melanoma, 0.616 µM; in the assay on CCRF-CEM leukemia it was 0.901 µM; in the assay with UACC-257 melanoma, 0.68 µM. In addition, the results for the GI50 with SN12C renal and with PC-3 prostate were 3.83 µM and 2.06 µM, respectively. Moreover, the TGI in the assay on SW-620 colon came out at 2.35 µM; in the assay with A549 NSCLC, 6.59 µM; with SNB-75 CNS, 8.51 µM; in the assay with M14 melanoma, 1.22 µM; in the assay on CCRF-CEM leukemia, 2.66 µM; in the assay with UACC-257 melanoma it was 1.45 µM. Further, the TGI in the assay with SN12C renal came to 8.15 µM; with PC-3 prostate, 6.74 µM.

In the case of `COc1cc(-c2cn(-c3ccc(F)cc3)c(=O)[nH]2)cc(OC)c1OC`, the GI50 with SW-620 colon is more than 100 µM; in the assay on A549 NSCLC, more than 100 µM; in the assay on SNB-75 CNS, 55.6 µM; in the assay with M14 melanoma, more than 100 µM; in the assay with CCRF-CEM leukemia, more than 100 µM; in the assay on UACC-257 melanoma, more than 100 µM. For the same compound, the results for the GI50 with SN12C renal and in the assay on PC-3 prostate were 9.93 µM and more than 100 µM, respectively. Besides, the TGI with SW-620 colon, in the assay with A549 NSCLC, in the assay on SNB-75 CNS, with M14 melanoma, with CCRF-CEM leukemia and in the assay with UACC-257 melanoma was more than 100 µM each time. For the same compound, the TGI in the assay with SN12C renal and in the assay with PC-3 prostate was more than 100 µM each time.

As to `C=C(C)C1Cc2cc(C(C)=O)ccc2O1` (stereo not drawn), the TGI with SW-620 colon, in the assay with A549 NSCLC, with SNB-75 CNS, in the assay with M14 melanoma, with CCRF-CEM leukemia and with UACC-257 melanoma was more than 100 µM in each case. For the same compound, the TGI in the assay on SN12C renal and with PC-3 prostate was more than 100 µM each time.

`Cn1c(=O)c2[nH]c(CCS)nc2n(C)c1=O`: the TGI with SW-620 colon is more than 100 µM; with A549 NSCLC, more than 100 µM; in the assay with SNB-75 CNS, 67.7 µM; in the assay on M14 melanoma, more than 100 µM; in the assay on CCRF-CEM leukemia, more than 100 µM; in the assay on UACC-257 melanoma, more than 100 µM. Further, the TGI with SN12C renal and with PC-3 prostate was more than 100 µM throughout.

For `CCN(CC)CCC(CNc1c(C)cnc2cc(Cl)ccc12)c1ccc(Cl)c(Cl)c1` (stereo not drawn), the GI50 is 2.14 µM with SW-620 colon; 8.21 µM with A549 NSCLC; 3.9 µM with SNB-75 CNS; 1.82 µM in the assay with M14 melanoma; 2.81 µM in the assay on CCRF-CEM leukemia; 2.08 µM in the assay on UACC-257 melanoma. In addition, the GI50 was 7.67 µM with SN12C renal and 4.1 µM with PC-3 prostate. The TGI in the assay with SW-620 colon amounted to 7 µM; in the assay with A549 NSCLC, 22 µM; with SNB-75 CNS, 18.7 µM; with M14 melanoma, 3.63 µM; in the assay with CCRF-CEM leukemia, 9.31 µM; in the assay with UACC-257 melanoma, 3.93 µM. Moreover, the TGI is 23.7 µM in the assay on SN12C renal and 16.2 µM in the assay with PC-3 prostate.

In the case of `CCN1Cc2c(/C=C/c3ccccc3)nc3ccc(OC)cc3c2N(c2cccc(Cl)c2)C1`, the GI50 in the assay on SW-620 colon is 1.67 µM; in the assay with A549 NSCLC it was 1.99 µM; with SNB-75 CNS it was 1.8 µM; in the assay with M14 melanoma, 2.04 µM; with CCRF-CEM leukemia, 2.17 µM; in the assay on UACC-257 melanoma it was 1.75 µM. The GI50 in the assay on SN12C renal is 2.43 µM; in the assay with PC-3 prostate, 1.79 µM. Moreover, the TGI was determined as 3.29 µM with SW-620 colon; 3.96 µM in the assay with A549 NSCLC; 6.1 µM with SNB-75 CNS; 4 µM in the assay with M14 melanoma; 5.84 µM with CCRF-CEM leukemia; 4.22 µM in the assay on UACC-257 melanoma. Besides, the figures for the TGI in the assay on SN12C renal and in the assay with PC-3 prostate were 7.82 µM and 5.64 µM, respectively.

With `NCCNc1nc2ccc(F)cc2c2c(=O)c3cc(F)ccc3sc12`, the GI50 with SW-620 colon was 1.56 µM; with A549 NSCLC it was 1.73 µM; with SNB-75 CNS, 0.138 µM; in the assay on M14 melanoma, 2.77 µM; in the assay with CCRF-CEM leukemia, 2.11 µM; in the assay with UACC-257 melanoma, 2.69 µM. Also, the GI50 with SN12C renal is 1.68 µM; in the assay with PC-3 prostate, 1.48 µM. Also, the TGI is 3.09 µM with SW-620 colon; 3.38 µM with A549 NSCLC; 5.02 µM in the assay with SNB-75 CNS; 8.65 µM in the assay with M14 melanoma; 4.54 µM with CCRF-CEM leukemia; 7.8 µM in the assay with UACC-257 melanoma. In addition, the results for the TGI in the assay with SN12C renal and with PC-3 prostate were 3.29 µM and 2.85 µM, respectively.

(Values after PubChem BioAssay (NCI).)
